Assay results reported in ChEMBL document CHEMBL3813626, “Synthesis, antimalarial properties and 2D-QSAR studies of novel triazole-quinine conjugates” (Bioorg Med Chem, 2016).

Tested on: Plasmodium falciparum
Experiment: Antimalarial activity against blood stage Plasmodium falciparum 3D7 infected in human erythrocytes assessed as reduction in parasitemia after 72 hrs by SYBR green I fluorescence-based method
Assay type: functional, organism-based
Conditions: 3D7, 72 h

## C=C[C@H]1CN2CC[C@H]1C[C@@H]2[C@H](OCCc1cn(-c2ccc(OC)cc2)nn1)c1ccnc2ccc(OC)cc12
  IC50: 43 nM

## C=C[C@H]1CN2CC[C@H]1C[C@@H]2[C@H](OCc1cn(CCCc2ccccc2)nn1)c1ccnc2ccc(OC)cc12
  IC50: 890 nM

## C=C[C@H]1CN2CC[C@H]1C[C@@H]2[C@H](OCc1cn(-c2cccc(C#N)c2)nn1)c1ccnc2ccc(OC)cc12
  IC50: 2000 nM

## C=C[C@H]1CN2CC[C@H]1C[C@@H]2[C@H](OCc1cn(-c2ccccc2Cl)nn1)c1ccnc2ccc(OC)cc12
  IC50: 20000 nM

## C=C[C@H]1CN2CC[C@H]1C[C@@H]2[C@H](OCc1cn(Cc2ccc(C)cc2)nn1)c1ccnc2ccc(OC)cc12
  IC50: 450 nM

## C=C[C@H]1CN2CC[C@H]1C[C@@H]2[C@H](OCc1cn(Cn2nnc3ccccc32)nn1)c1ccnc2ccc(OC)cc12
  IC50: 4800 nM

## C=C[C@H]1CN2CC[C@H]1C[C@@H]2[C@H](OCc1cn(-c2ccc([N+](=O)[O-])cc2)nn1)c1ccnc2ccc(OC)cc12
  IC50: 640 nM

## C=C[C@H]1CN2CC[C@H]1C[C@@H]2[C@H](OCc1cn(-c2ccccc2[N+](=O)[O-])nn1)c1ccnc2ccc(OC)cc12
  IC50: 1300 nM

## C=C[C@H]1CN2CC[C@H]1C[C@@H]2[C@H](OCc1cn([C@@H](Cc2ccccc2)C(=O)O)nn1)c1ccnc2ccc(OC)cc12
  IC50: 7700 nM

## C=C[C@H]1CN2CC[C@H]1C[C@@H]2[C@H](OCc1cn([C@@H](Cc2c[nH]c3ccccc23)C(=O)O)nn1)c1ccnc2ccc(OC)cc12
  IC50: 8400 nM

## C=C[C@H]1CN2CC[C@H]1C[C@@H]2[C@H](OCc1cn(-c2ccc(OC)cc2)nn1)c1ccnc2ccc(OC)cc12
  IC50: 2200 nM

## C=C[C@H]1CN2CC[C@H]1C[C@@H]2[C@H](OCc1cn(-c2ccccc2C#N)nn1)c1ccnc2ccc(OC)cc12
  IC50: 1000 nM

## C=C[C@H]1CN2CC[C@H]1C[C@@H]2[C@H](OCc1cn([C@@H](C)C(=O)O)nn1)c1ccnc2ccc(OC)cc12
  IC50: 41000 nM

## C=C[C@H]1CN2CC[C@H]1C[C@@H]2[C@H](OCc1cn(-c2ccc(Cl)cc2)nn1)c1ccnc2ccc(OC)cc12
  IC50: 900 nM

## C=C[C@H]1CN2CC[C@H]1C[C@@H]2[C@H](OCCc1cn(Cc2ccccc2)nn1)c1ccnc2ccc(OC)cc12
  IC50: 30 nM

## C=C[C@H]1CN2CC[C@H]1C[C@@H]2[C@H](OCc1cn(Cc2ccc([N+](=O)[O-])cc2)nn1)c1ccnc2ccc(OC)cc12
  IC50: 1200 nM

## C=C[C@H]1CN2CC[C@H]1C[C@@H]2[C@H](OCCc1cn(-c2ccccc2Cl)nn1)c1ccnc2ccc(OC)cc12
  IC50: 37 nM

## C=C[C@H]1CN2CC[C@H]1C[C@@H]2[C@H](OCc1cn(CC(=O)N[C@@H](CC(C)C)C(=O)O)nn1)c1ccnc2ccc(OC)cc12
  IC50: 12000 nM

## C=C[C@H]1CN2CC[C@H]1C[C@@H]2[C@H](OCCc1cn(-c2ccc(C)cc2)nn1)c1ccnc2ccc(OC)cc12
  IC50: 40 nM

## C=C[C@H]1CN2CC[C@H]1C[C@@H]2[C@H](OCCc1cn(-c2ccccc2[N+](=O)[O-])nn1)c1ccnc2ccc(OC)cc12
  IC50: 3300 nM

## C=C[C@H]1CN2CC[C@H]1C[C@@H]2[C@H](OCCc1cn(-c2ccc(Cl)cc2)nn1)c1ccnc2ccc(OC)cc12
  IC50: 41 nM

## C=C[C@H]1CN2CC[C@H]1C[C@@H]2[C@H](OCc1cn(CC(=O)N[C@@H](Cc2ccccc2)C(=O)O)nn1)c1ccnc2ccc(OC)cc12
  IC50: 5500 nM

## C=C[C@H]1CN2CC[C@H]1C[C@@H]2[C@H](OCCc1cn(-c2ccc([N+](=O)[O-])cc2)nn1)c1ccnc2ccc(OC)cc12
  IC50: 345 nM

## C=C[C@H]1CN2CC[C@H]1C[C@@H]2[C@H](OCc1cn([C@H](C(=O)N(CC)CC)C(C)C)nn1)c1ccnc2ccc(OC)cc12
  IC50: 880 nM

## C=C[C@H]1CN2CC[C@H]1C[C@@H]2[C@H](OCc1cn([C@H](C(=O)O)C(C)C)nn1)c1ccnc2ccc(OC)cc12
  IC50: 20000 nM

## C=C[C@H]1CN2CC[C@H]1C[C@@H]2[C@H](OCc1cn(Cc2ccccc2)nn1)c1ccnc2ccc(OC)cc12
  IC50: 790 nM

## C=C[C@H]1CN2CC[C@H]1C[C@@H]2[C@H](OCc1cn(-c2ccccn2)nn1)c1ccnc2ccc(OC)cc12
  IC50: 5700 nM

## C=C[C@H]1CN2CC[C@H]1C[C@@H]2[C@H](OCc1cn(CC(OC)OC)nn1)c1ccnc2ccc(OC)cc12
  IC50: 3400 nM

## C=C[C@H]1CN2CC[C@H]1C[C@H]2[C@H](O)c1ccnc2ccc(OC)cc12 [QUININE]
  IC50: 58 nM

## C=C[C@H]1CN2CC[C@H]1C[C@@H]2[C@H](OCc1cn([C@@H](CC(C)C)C(=O)O)nn1)c1ccnc2ccc(OC)cc12
  IC50: 31000 nM

## C=C[C@H]1CN2CC[C@H]1C[C@@H]2[C@H](OCCc1cn(CCCc2ccccc2)nn1)c1ccnc2ccc(OC)cc12
  IC50: 27 nM

## C=C[C@H]1CN2CC[C@H]1C[C@@H]2[C@H](OCc1cn(/C=C/n2nnc3ccccc32)nn1)c1ccnc2ccc(OC)cc12
  IC50: 1500 nM
